According to patent US5571816A, “Pyrimidines” (Hoechst Aktiengesellschaft, priority 1992, dated 1996):
Structures can show the parent of a compound that is named as a salt. Where two headings read alike, the source gives them in different places.

How the values were obtained:
LDL receptor mRNA [1] = assay: Stimulation of LDL receptor mRNA expression in rat livers (Northern blot); assay type: in vivo; conditions: rat liver, 30 mg/kg, 6 hours after administration; untreated control = 100%
Method: 1b. The LDL receptor mRNA levels are also raised in rat livers by compounds of the formula I within a few hours (Table II).
(§1) The mRNA was prepared by the method described by Chomczynski, P. and Sacchi, N., in Anal. Biochem. 162, 156-159 (1987). In the case of organs (such as, for example, liver), the deep-frozen tissue was previously homogenized on dry ice in a mortar, and the mRNA was further concentrated by means of oligo dT by standard methods (cf. Sambrook, J., Fritsch, E. F. and Maniatis, T., Molecular Cloning, second edition, Cold Spring Harbor (1989); this collection of methods also includes descriptions of all the other relevant standard processes of molecular biology used here). 5 to […] of the dissolved mRNA obtained in this way were denatured by standard processes and fractionated on 1% horizontal agarose gels. The mRNA was transferred by capillary blotting to Hybond N membranes (Amersham). Used as specific hybridization probe was a partial LDL receptor cDNA clone and as internal standard was a plasmid which contained a β-actin gene. Both plasmids were labeled using a random primer kit from Amersham to a specific activity of 5×10^9 cpm/μg. Prehybridization, hybridization and washing of the filters took place by standard processes. The filters were subsequently exposed on Cronex 4 films (Dupont) in the presence of an intensifying screen at -70° C. overnight or for up to 14 days, and the hybridization signals were quantified from the intensity of blackening of the film using a commercially available laser densitometer. Subsequently, the quotient of the intensity of the LDL receptor band and of the actin band was determined as internal standard to correct for variations in yield.
Liver tissue was removed and shock-frozen in liquid nitrogen.
Subsequently, the mRNA was isolated as described and, by means of the Northern blot technique, the relative LDL receptor mRNA levels were determined. The mRNA level of untreated control animals was set equal to 100%, and the stimulation of the LDL receptor mRNA was calculated as a percentage of the […]

serum lipoproteins = assay: Effect on serum lipoproteins of normolipemic male rats in a subchronic experiment; assay type: in vivo; conditions: Rattus norvegicus, po, by stomach tube, 7 administrations; for change in vivo at 10 mg/kg: 10 mg/kg/day; for change in vivo at 30 mg/kg: 30 mg/kg/day; for change in vivo at 3 mg/kg: 3 mg/kg/day
In short: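 Male HOE: WISKf rats (>180 g, 10/group) dosed orally by stomach tube once daily for 7 days in 1% aqueous Tylose; fasted 24 h and bled 24 h after last dose. Pooled serum ultracentrifuged into VLDL (d<1.006) and LDL (d 1.006–1.04); cholesterol and triglycerides measured enzymatically, protein by Lowry.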

[2] = Solubility in water of salts (and free bases); assay type: physicochemical; conditions: Table 2, salts of compounds I, temp. by No. [°C]: 1 25.5, 2 23.0, 3 22.4, 4 22.4, 5 22.0, 6 25.0, 7 25.5, 8 25.5, 9 25.5, 10 23.5, 11 23.5, 12 25.0, 13 24.0, 14 23.0, 15 22.0, 16 24.5, 17 22.5, 18 22.0; for solubility: water, read-out: Solubility in water, Concentration in % by wt.
LDL receptor mRNA [3] = assay: Stimulation of LDL receptor mRNA expression in HepG2 cells (Northern blot); assay type: cell-based; conditions: Homo sapiens; HepG2, 2 × 10^-6 M, 16 h; control = 100%; ratio to β-actin mRNA
Method: 1a. In the human hepatocytoma cell line HepG2, which is recognized everywhere as model, the LDL receptor mRNA levels are increased by the compounds of the formula I (Table I).
as §1
The HepG2 cells were incubated in RPMI 1640 standard medium with fetal calf serum (final concentration 10%). Serum-free RPMI medium was used as induction control. Subsequently, the complete mRNA was prepared and, by means of the Northern blot technique, the relevant LDL receptor mRNA and β-actin mRNA levels were determined. The quotient of the LDL receptor mRNA signal and of the β-actin mRNA signal of the control (without added substance) was set equal to 100%, and the stimulation above this of the LDL receptor mRNA levels achieved under the influence of the compounds was expressed as percentage of the control.

[4] = read-out: Serum LDL cholesterol, % change from control at end of treatment
[5] = read-out: Serum LDL protein, % change from control at end of treatment
[6] = read-out: Serum VLDL cholesterol, % change from control at end of treatment
[7] = read-out: Serum VLDL protein, % change from control at end of treatment
[8] = read-out: Serum VLDL triglycerides, % change from control at end of treatment

SMILES	LDL receptor mRNA (LDL receptor mRNA [1]) [%]	change in vivo at 10 mg/kg (serum lipoproteins; [4]) [%]	change in vivo at 10 mg/kg (serum lipoproteins; [5]) [%]	change in vivo at 10 mg/kg (serum lipoproteins; [6]) [%]	change in vivo at 10 mg/kg (serum lipoproteins; [7]) [%]	change in vivo at 10 mg/kg (serum lipoproteins; [8]) [%]	change in vivo at 30 mg/kg (serum lipoproteins; [4]) [%]	change in vivo at 30 mg/kg (serum lipoproteins; [5]) [%]	change in vivo at 30 mg/kg (serum lipoproteins; [6]) [%]	change in vivo at 30 mg/kg (serum lipoproteins; [7]) [%]	change in vivo at 30 mg/kg (serum lipoproteins; [8]) [%]	1 part by mass dissolves in ... parts by H2O [2] [parts by H2 O]	solubility [2] [mg/mL]	activity at 2 µM (LDL receptor mRNA [3]) [%]	change in vivo at 3 mg/kg (serum lipoproteins; [4]) [%]	change in vivo at 3 mg/kg (serum lipoproteins; [5]) [%]	change in vivo at 3 mg/kg (serum lipoproteins; [6]) [%]	change in vivo at 3 mg/kg (serum lipoproteins; [7]) [%]
CCCN(C(=O)c1cnc(N2CC(C)(C)NC2=O)nc1N)c1cccc(C(F)(F)F)c1 [Example 33]	350	-47	-33	48	-29	-73	-67	44	-95	-33	-100	22.8	42	205	–	–	–	–
C=CCN(C(=O)c1cnc(N2CC(C)(C)NC2=O)nc1N)c1cccc(C(F)(F)F)c1 [Example 40]	340	-53	-38	-40	-41	-2	-58	-52	-57	-52	-41	12.1	76.6	180	-22	-18	-19	-11
CC(C)N(C(=O)c1cnc(N2CC(C)(C)NC2=O)nc1N)c1cccc(C(F)(F)F)c1 [Example 4, 4-amino-2-(4,4-dimethyl-2-oxo-1-imidazolidinyl)pyrimidine-5-carboxylic acid N-isopropyl-N-(3-trifluoromethylphenyl)amide hydrochloride]	221	-39	-33	2	-18	–	-68	-53	-70	-13	-29	–	–	205	–	–	–	–
